Measurements: patent publication US20260216170A1, “TETRAHYDROISOQUINOLINE HETEROBIFUNCTIONAL BCL-XL DEGRADERS” (Treeline Biosciences, Inc., priority 2023, published 2026)

Target: T1, Human BCL-XL protein (N-terminal HiBiT tagged BCL-XL expressed in HT1080 cells) (Homo sapiens, UniProt Q07817)
T1 construct: expressed in transfected cells; host or cells: HT-1080 (ATCC CCL-121), stably transduced with lentivirus pLV-UBC-N-HiBiT-BCL-XL-PGK-puro and selected with puromycin
Assay: HiBiT Based Degradation Assay
Assay type: cell-based
Conditions: 24 hours incubation; for DC50: BCL-XL degradation, HT1080 cells expressing N-HiBiT-BCL-XL, normalized with DMSO control, geometric mean for multiple data points, read-out: EC50 (24 h); for Ymin (24 h): bottom of BCL-XL degradation curve (remaining HiBiT-BCL-XL signal vs DMSO control), HT1080 cells
Outline: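 BCL-XL degradation was read as Nano-Glo HiBiT lytic luminescence relative to DMSO after a 24 h compound treatment of HT1080 cells carrying stably integrated N-HiBiT-BCL-XL. EC50 values come from four-parameter logistic curves, with the hook-curve minimum fixed as bottom, and are geometric means where tested repeatedly.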

T1 sequence (Q07817 whole entry): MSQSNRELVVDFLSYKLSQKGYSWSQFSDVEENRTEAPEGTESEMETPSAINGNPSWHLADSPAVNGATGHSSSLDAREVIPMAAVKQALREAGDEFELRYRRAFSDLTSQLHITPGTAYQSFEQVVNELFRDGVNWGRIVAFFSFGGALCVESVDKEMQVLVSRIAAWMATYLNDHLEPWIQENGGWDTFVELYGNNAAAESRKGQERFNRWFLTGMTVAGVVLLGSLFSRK

Compound	DC50	Ymin (24 h)
Cn1nc(C2CCC(=O)NC2=O)c2ccc(NC(=O)CN3CCC4(CC3)CC(COc3cccc(-c5ccc(N6CCc7ccnc(C(=O)Nc8nc9ccccc9s8)c7C6)nc5C(=O)O)c3C(F)(F)F)C4)cc21 (stereo not shown) [Compound 161, 6-[8-(1,3-benzothiazol-2-ylcarbamoyl)-3,4-dihydro-1H-2,7-naphthyridin-2-yl]-3-[3-[[7-[2-[[3-(2,6-dioxo-3-piperidyl)-1-methyl-indazol-6-yl]amino]-2-oxo-ethyl]-7-azaspiro[3.5]nonan-2-yl]methoxy]-2-(trifluoromethyl)phenyl]pyridine-2-carboxylic acid]	10 to 100 nM	B (30% ≤ Ymin < 50%)
Cc1c(OCCCC2CCN(CCNc3ccc4c(C5CCC(=O)NC5=O)nn(C)c4c3)CC2)cccc1-c1ccc(N2CCc3cccc(C(=O)Nc4nc5ccccc5s4)c3C2)nc1C(=O)O (stereo not shown) [Compound 150, 6-[8-(1,3-benzothiazol-2-ylcarbamoyl)-3,4-dihydro-1H-isoquinolin-2-yl]-3-[3-[3-[1-[2-[[3-(2,6-dioxo-3-piperidyl)-1-methyl-indazol-6-yl]amino]ethyl]-4-piperidyl]propoxy]-2-methyl-phenyl]pyridine-2-carboxylic acid]	< 10 nM	B (30% ≤ Ymin < 50%)
COc1c(NC(=O)CN2CCC(CCCOc3cccc(-c4ccc(N5CCc6cccc(C(=O)Nc7nc8ccccc8s7)c6C5)nc4C(=O)O)c3C)CC2)ccc2c(C3CCC(=O)NC3=O)nn(C)c12 (stereo not shown) [Compound 104, 6-[8-(1,3-benzothiazol-2-ylcarbamoyl)-3,4-dihydro-1H-isoquinolin-2-yl]-3-[3-[3-[1-[2-[[3-(2,6-dioxo-3-piperidyl)-7-methoxy-1-methyl-indazol-6-yl]amino]-2-oxo-ethyl]-4-piperidyl]propoxy]-2-methyl-phenyl]pyridine-2-carboxylic acid]	10 to 100 nM	B (30% ≤ Ymin < 50%)
Cc1c(OC2CC3(CCN(CC(=O)Nc4ccc5c(C6CCC(=O)NC6=O)nn(C)c5c4)CC3)C2)cccc1-c1ccc(N2CCc3ccnc(C(=O)Nc4nc5ccccc5s4)c3C2)nc1C(=O)O (stereo not shown) [Compound 163, 6-[8-(1,3-benzothiazol-2-ylcarbamoyl)-3,4-dihydro-1H-2,7-naphthyridin-2-yl]-3-[3-[[7-[2-[[3-(2,6-dioxo-3-piperidyl)-1-methyl-indazol-6-yl]amino]-2-oxo-ethyl]-7-azaspiro[3.5]nonan-2-yl]oxy]-2-methyl-phenyl]pyridine-2-carboxylic acid]	< 10 nM	B (30% ≤ Ymin < 50%)
Cc1c(OCCC[C@@H]2CCN(CC(=O)Nc3ccc4c(C5CCC(=O)NC5=O)nn(C)c4c3)[C@@H](C)C2)cccc1-c1ccc(N2CCc3cccc(C(=O)Nc4nc5ccccc5s4)c3C2)nc1C(=O)O (stereo partly shown) [Compound 208a]	10 to 100 nM	B (30% ≤ Ymin < 50%)
Cc1cc(OC[C@@H]2C[C@@H]2C2CCN(CC(=O)Nc3ccc4c(C5CCC(=O)NC5=O)nn(C)c4c3)CC2)ccc1-c1ccc(N2CCc3cccc(C(=O)Nc4nc5ccccc5s4)c3C2)nc1C(=O)O (single isomer, unassigned) [Compound 1003d]	< 10 nM	A (Ymin < 30%)
Cn1nc(C2CCC(=O)NC2=O)c2ccc(NC(=O)CN3CCC4(CC3)CC(Oc3ccc(-c5ccc(N6CCc7ccnc(C(=O)Nc8nc9ccccc9s8)c7C6)nc5C(=O)O)c(C(F)(F)F)c3)C4)nc21 (stereo not shown) [Compound 206]	10 to 100 nM	B (30% ≤ Ymin < 50%)
COc1c(NC(=O)CN2CCC(CCCOc3cccc(-c4ccc(N5CCc6ccnc(C(=O)Nc7nc8ccccc8s7)c6C5)nc4C(=O)O)c3C(F)(F)F)CC2)ccc2c(C3CCC(=O)NC3=O)nn(C)c12 (stereo not shown) [Compound 180, 6-[8-(1,3-benzothiazol-2-ylcarbamoyl)-3,4-dihydro-1H-2,7-naphthyridin-2-yl]-3-[3-[3-[1-[2-[[3-(2,6-dioxo-3-piperidyl)-7-methoxy-1-methyl-indazol-6-yl]amino]-2-oxo-ethyl]-4-piperidyl]propoxy]-2-(trifluoromethyl)phenyl]pyridine-2-carboxylic acid]	10 to 100 nM	B (30% ≤ Ymin < 50%)
Cc1cc(OCCCC2CCN(CCCc3ccc4c(C5CCC(=O)NC5=O)nn(C)c4c3)CC2)ccc1-c1ccc(N2CCc3cccc(C(=O)Nc4nc5ccccc5s4)c3C2)nc1C(=O)O (stereo not shown) [Compound 151, 6-(8-(benzo[d]thiazol-2-ylcarbamoyl)-3,4-dihydroisoquinolin-2(1H)-yl)-3-(4-(3-(1-(3-(3-(2,6-dioxopiperidin-3-yl)-1-methyl-1H-indazol-6-yl)propyl)piperidin-4-yl)propoxy)-2-methylphenyl)picolinic acid]	< 10 nM	A (Ymin < 30%)
COc1c(NC(=O)CN2CC[C@@H](CCCOc3cccc(-c4ccc(N5CCc6ccnc(C(=O)Nc7nc8ccccc8s7)c6C5)nc4C(=O)O)c3C)C[C@@H]2C)ccc2c(C3CCC(=O)NC3=O)nn(C)c12 (stereo partly shown) [Compound 216b]	< 10 nM	B (30% ≤ Ymin < 50%)
Cc1cc(OCCC[C@@H]2CCN(CC(=O)Nc3ccc4c(C5CCC(=O)NC5=O)nn(C)c4c3)[C@H](C)C2)ccc1-c1ccc(N2CCc3ccnc(C(=O)Nc4nc5ccccc5s4)c3C2)nc1C(=O)O (stereo partly shown) [Compound 219d]	< 10 nM	A (Ymin < 30%)
Cn1nc(C2CCC(=O)NC2=O)c2ccc(NC(=O)CN3CCC4(CC3)CC(Oc3cccc(-c5ccc(N6CCc7cccc(C(=O)Nc8nc9ccccc9s8)c7C6)nc5C(=O)O)c3C(F)(F)F)C4)nc21 (stereo not shown) [Compound 192, 6-(8-(benzo[d]thiazol-2-ylcarbamoyl)-3,4-dihydroisoquinolin-2(1H)-yl)-3-(3-((7-(2-((3-(2,6-dioxopiperidin-3-yl)-1-methyl-1H-pyrazolo[3,4-b]pyridin-6-yl)amino)-2-oxoethyl)-7-azaspiro[3.5]nonan-2-yl)oxy)-2-(trifluoromethyl)phenyl)picolinic acid]	< 10 nM	B (30% ≤ Ymin < 50%)
Cn1nc(C2CCC(=O)NC2=O)c2ccc(NC(=O)CN3CCC4(CC3)CC(Oc3cccc(-c5ccc(N6CCc7ccnc(C(=O)Nc8nc9ccccc9s8)c7C6)nc5C(=O)O)c3C(F)(F)F)C4)cc21 (stereo not shown) [Compound 154, 6-[8-(1,3-benzothiazol-2-ylcarbamoyl)-3,4-dihydro-1H-2,7-naphthyridin-2-yl]-3-[3-[[7-[2-[[3-(2,6-dioxo-3-piperidyl)-1-methyl-indazol-6-yl]amino]-2-oxo-ethyl]-7-azaspiro[3.5]nonan-2-yl]oxy]-2-(trifluoromethyl)phenyl]pyridine-2-carboxylic acid]	< 10 nM	B (30% ≤ Ymin < 50%)
C[C@@H](CCC1CCN(CC(=O)Nc2ccc3c(C4CCC(=O)NC4=O)nn(C)c3c2)CC1)Oc1ccc(-c2ccc(N3CCc4cccc(C(=O)Nc5nc6ccccc6s5)c4C3)nc2C(=O)O)c(C(F)(F)F)c1 (single isomer, unassigned) [Compound 138a]	< 10 nM	B (30% ≤ Ymin < 50%)
Cn1nc(C2CCC(=O)NC2=O)c2ccc(NC(=O)CN3CCC4(CC3)CC(Oc3cccc(-c5ccc(N6CCc7ccnc(C(=O)Nc8nc9ccccc9s8)c7C6)nc5C(=O)O)c3C(F)(F)F)C4)c(F)c21 (stereo not shown) [Compound 214]	< 10 nM	B (30% ≤ Ymin < 50%)
COc1c(NC(=O)CN2CCC3(CC2)CC(COc2cccc(-c4ccc(N5CCc6cccc(C(=O)Nc7nc8ccccc8s7)c6C5)nc4C(=O)O)c2C)C3)ccc2c(C3CCC(=O)NC3=O)nn(C)c12 (stereo not shown) [Compound 127]	10 to 100 nM	A (Ymin < 30%)
Cc1cc(OCCC[C@H]2CCN(CC(=O)Nc3ccc4c(C5CCC(=O)NC5=O)nn(C)c4c3)[C@H](C)C2)ccc1-c1ccc(N2CCc3ccnc(C(=O)Nc4nc5ccccc5s4)c3C2)nc1C(=O)O (stereo partly shown) [Compound 219c]	< 10 nM	A (Ymin < 30%)
COc1c(NC(=O)CN2CCC(CCCOc3ccc(-c4ccc(N5CCc6cccc(C(=O)Nc7nc8ccccc8s7)c6C5)nc4C(=O)O)c(C)c3)CC2)ccc2c(C3CCC(=O)NC3=O)nn(C)c12 (stereo not shown) [Compound 105, 6-[8-(1,3-benzothiazol-2-ylcarbamoyl)-3,4-dihydro-1H-isoquinolin-2-yl]-3-[4-[3-[1-[2-[[3-(2,6-dioxo-3-piperidyl)-7-methoxy-1-methyl-indazol-6-yl]amino]-2-oxo-ethyl]-4-piperidyl]propoxy]-2-methyl-phenyl]pyridine-2-carboxylic acid]	10 to 100 nM	A (Ymin < 30%)
COc1c(NC(=O)CN2CCC3(CC2)CC(Oc2cccc(-c4ccc(N5CCc6cccc(C(=O)Nc7nc8ccccc8s7)c6C5)nc4C(=O)O)c2C(F)(F)F)C3)ccc2c(C3CCC(=O)NC3=O)nn(C)c12 (stereo not shown) [Compound 166, 6-(8-(benzo[d]thiazol-2-ylcarbamoyl)-3,4-dihydroisoquinolin-2(1H)-yl)-3-(3-((7-(2-((3-(2,6-dioxopiperidin-3-yl)-7-methoxy-1-methyl-1H-indazol-6-yl)amino)-2-oxoethyl)-7-azaspiro[3.5]nonan-2-yl)oxy)-2-(trifluoromethyl)phenyl)picolinic acid]	10 to 100 nM	B (30% ≤ Ymin < 50%)
Cc1c(OCCCC2CCN(CCOc3ccc4c(C5CCC(=O)NC5=O)nn(C)c4c3)CC2)cccc1-c1ccc(N2CCc3cccc(C(=O)Nc4nc5ccccc5s4)c3C2)nc1C(=O)O (stereo not shown) [Compound 156]	< 10 nM	B (30% ≤ Ymin < 50%)
